Data from ChEMBL document CHEMBL3885861, “Open TG-GATES”.

Species: Rattus norvegicus
Assay: Open TG-GATES - Regimen: Daily Repeat
Type: toxicity, organism-based, Sprague-Dawley
Parameters: regimen Daily Repeat, gender Male, age 6 weeks
Conditions: in vivo, po, route gavage; for APTT / Bas / Eos / Fbg / Hb / Ht / Lym / MCH / MCHC / MCV / Mono / Neu / PT / Plat / RBC / Ret / WBC: tissue Blood; for KIDNEY_L / KIDNEY_R / KIDNEY_TOTAL: tissue Kidney; for LIVER: tissue Liver; for A/G / ALP / ALT / AST / BUN / CRE / Ca / Cl / DBIL / GLC / IP / K / LDH / Na / PL / RALB / TBIL / TC / TG / TP / gamma-GTP: tissue Plasma
[1] = 120 mg/kg, 72 h, dose level Middle, time 3 day
[2] = 120 mg/kg, […], dose level Middle, time 7 day
[3] = 120 mg/kg, […], dose level Middle, time 14 day
[4] = 120 mg/kg, […], dose level Middle, time 28 day
[5] = 400 mg/kg, 72 h, dose level High, time 3 day
[6] = 400 mg/kg, […], dose level High, time 7 day
[7] = 400 mg/kg, […], dose level High, time 14 day
[8] = 400 mg/kg, […], dose level High, time 28 day

## COc1ccc(Cc2nccc3cc(OC)c(OC)cc23)cc1OC [PAPAVERINE]
[1]
  TERMINAL_BW: 245.2 g
  APTT: 22.2 s
  Bas: 0%
  Eos: 1%
  Fbg: 316.2 mg/dL
  Hb: 13.6 g/dL
  Ht: 40.6%
  Lym: 77.8%
  MCH: 20.8 pg
  MCHC: 33.5%
  MCV: 62.1 fL
  Mono: 2.6%
  Neu: 17.8%
  PT: 15.3 s
  Plat: 116.6 x10_4/uL
  RBC: 654.2 x10_4/ul
  Ret: 6.2%
  WBC: 84.6 x10_2/uL
  KIDNEY_L: 1 g
  KIDNEY_R: 1 g
  KIDNEY_TOTAL: 2 g
  LIVER: 11.7 g
  A/G: 1.2
  ALP: 1731.2 IU/L
  ALT: 43 IU/L
  AST: 72 IU/L
  BUN: 15.8 mg/dL
  CRE: 0.2 mg/dL
  Ca: 10.9 mg/dL
  Cl: 106.8 meq/L
  DBIL: 0 mg/dL
  GLC: 195.8 mg/dL
  IP: 7.3 mg/dL
  K: 4.3 meq/L
  LDH: 179.2 IU/L
  Na: 142.6 meq/L
  PL: 144 mg/dL
  RALB: 3.1 g/dL
  TBIL: 0.006 mg/dL
  TC: 77.2 mg/dL
  TG: 98.6 mg/dL
  TP: 5.7 g/dL
  gamma-GTP: 1.2 IU/L
[2]
  TERMINAL_BW: 287 g
  APTT: 21.9 s
  Bas: 0%
  Eos: 1%
  Fbg: 314.8 mg/dL
  Hb: 13.4 g/dL
  Ht: 39.9%
  Lym: 76.8%
  MCH: 21 pg
  MCHC: 33.6%
  MCV: 62.6 fL
  Mono: 2.8%
  Neu: 18.6%
  PT: 15 s
  Plat: 122.9 x10_4/uL
  RBC: 638.8 x10_4/ul
  Ret: 6.6%
  WBC: 106.6 x10_2/uL
  KIDNEY_L: 1.2 g
  KIDNEY_R: 1.2 g
  KIDNEY_TOTAL: 2.4 g
  LIVER: 13.8 g
  A/G: 1.2
  ALP: 1633.8 IU/L
  ALT: 45.4 IU/L
  AST: 68.8 IU/L
  BUN: 17.2 mg/dL
  CRE: 0.2 mg/dL
  Ca: 10.8 mg/dL
  Cl: 106 meq/L
  DBIL: 0 mg/dL
  GLC: 197.4 mg/dL
  IP: 7.2 mg/dL
  K: 4 meq/L
  LDH: 173.4 IU/L
  Na: 141.4 meq/L
  PL: 149 mg/dL
  RALB: 3.1 g/dL
  TBIL: 0 mg/dL
  TC: 73.4 mg/dL
  TG: 123.2 mg/dL
  TP: 5.6 g/dL
  gamma-GTP: 2.2 IU/L
[3]
  TERMINAL_BW: 331.7 g
  APTT: 22.2 s
  Bas: 0%
  Eos: 1%
  Fbg: 341.6 mg/dL
  Hb: 14.1 g/dL
  Ht: 42.1%
  Lym: 71.2%
  MCH: 20 pg
  MCHC: 33.6%
  MCV: 59.7 fL
  Mono: 3.4%
  Neu: 22.8%
  PT: 15.1 s
  Plat: 117.8 x10_4/uL
  RBC: 706.4 x10_4/ul
  Ret: 5.2%
  WBC: 121.3 x10_2/uL
  KIDNEY_L: 1.3 g
  KIDNEY_R: 1.3 g
  KIDNEY_TOTAL: 2.6 g
  LIVER: 14.4 g
  A/G: 1.1
  ALP: 1378.8 IU/L
  ALT: 48 IU/L
  AST: 75.4 IU/L
  BUN: 18.6 mg/dL
  CRE: 0.2 mg/dL
  Ca: 10.5 mg/dL
  Cl: 106.6 meq/L
  DBIL: 0 mg/dL
  GLC: 191 mg/dL
  IP: 7.2 mg/dL
  K: 4 meq/L
  LDH: 166 IU/L
  Na: 142.6 meq/L
  PL: 156 mg/dL
  RALB: 3.1 g/dL
  TBIL: 0.014 mg/dL
  TC: 81.8 mg/dL
  TG: 109.8 mg/dL
  TP: 5.8 g/dL
  gamma-GTP: 2.4 IU/L
[4]
  TERMINAL_BW: 380.1 g
  APTT: 23.2 s
  Bas: 0%
  Eos: 1%
  Fbg: 339.2 mg/dL
  Hb: 14.3 g/dL
  Ht: 43.4%
  Lym: 77.6%
  MCH: 18.5 pg
  MCHC: 33%
  MCV: 56.1 fL
  Mono: 2.8%
  Neu: 17%
  PT: 15.8 s
  Plat: 100.4 x10_4/uL
  RBC: 773 x10_4/ul
  Ret: 2.7%
  WBC: 122.5 x10_2/uL
  KIDNEY_L: 1.4 g
  KIDNEY_R: 1.4 g
  KIDNEY_TOTAL: 2.8 g
  LIVER: 15.7 g
  A/G: 1.1
  ALP: 1042.8 IU/L
  ALT: 40.4 IU/L
  AST: 66.4 IU/L
  BUN: 18.2 mg/dL
  CRE: 0.2 mg/dL
  Ca: 10.1 mg/dL
  Cl: 106.2 meq/L
  DBIL: 0 mg/dL
  GLC: 191.4 mg/dL
  IP: 6 mg/dL
  K: 3.9 meq/L
  LDH: 120 IU/L
  Na: 141.8 meq/L
  PL: 129.8 mg/dL
  RALB: 3.1 g/dL
  TBIL: 0.01 mg/dL
  TC: 65.2 mg/dL
  TG: 119.8 mg/dL
  TP: 5.9 g/dL
  gamma-GTP: 2 IU/L
[5]
  TERMINAL_BW: 239.4 g
  APTT: 23.7 s
  Bas: 0%
  Eos: 1%
  Fbg: 314.4 mg/dL
  Hb: 13.5 g/dL
  Ht: 39.4%
  Lym: 73%
  MCH: 20.9 pg
  MCHC: 34.2%
  MCV: 61.1 fL
  Mono: 2%
  Neu: 23%
  PT: 15 s
  Plat: 111.3 x10_4/uL
  RBC: 644.8 x10_4/ul
  Ret: 5%
  WBC: 85.7 x10_2/uL
  KIDNEY_L: 1 g
  KIDNEY_R: 1.1 g
  KIDNEY_TOTAL: 2.1 g
  LIVER: 11.8 g
  A/G: 1.3
  ALP: 1542 IU/L
  ALT: 48.4 IU/L
  AST: 75.8 IU/L
  BUN: 16.6 mg/dL
  CRE: 0.1 mg/dL
  Ca: 10.9 mg/dL
  Cl: 107.4 meq/L
  DBIL: 0 mg/dL
  GLC: 179.8 mg/dL
  IP: 7.3 mg/dL
  K: 4.3 meq/L
  LDH: 160.2 IU/L
  Na: 143 meq/L
  PL: 148.4 mg/dL
  RALB: 3.1 g/dL
  TBIL: 0.008 mg/dL
  TC: 83 mg/dL
  TG: 78.4 mg/dL
  TP: 5.6 g/dL
  gamma-GTP: 1.4 IU/L
[6]
  TERMINAL_BW: 267.4 g
  APTT: 24.2 s
  Bas: 0%
  Eos: 0.4%
  Fbg: 337.4 mg/dL
  Hb: 13.6 g/dL
  Ht: 40.4%
  Lym: 74.4%
  MCH: 20.9 pg
  MCHC: 33.7%
  MCV: 61.9 fL
  Mono: 3%
  Neu: 20.8%
  PT: 15.2 s
  Plat: 126.4 x10_4/uL
  RBC: 652 x10_4/ul
  Ret: 5.8%
  WBC: 107.2 x10_2/uL
  KIDNEY_L: 1.2 g
  KIDNEY_R: 1.2 g
  KIDNEY_TOTAL: 2.3 g
  LIVER: 13.4 g
  A/G: 1.2
  ALP: 1249.6 IU/L
  ALT: 42.6 IU/L
  AST: 68 IU/L
  BUN: 18 mg/dL
  CRE: 0.2 mg/dL
  Ca: 10.9 mg/dL
  Cl: 107 meq/L
  DBIL: 0 mg/dL
  GLC: 191.8 mg/dL
  IP: 7.2 mg/dL
  K: 4.2 meq/L
  LDH: 164 IU/L
  Na: 142 meq/L
  PL: 149.4 mg/dL
  RALB: 3.1 g/dL
  TBIL: 0 mg/dL
  TC: 79.4 mg/dL
  TG: 91 mg/dL
  TP: 5.8 g/dL
  gamma-GTP: 2 IU/L
[7]
  TERMINAL_BW: 315.9 g
  APTT: 24.2 s
  Bas: 0%
  Eos: 1%
  Fbg: 321.6 mg/dL
  Hb: 14.1 g/dL
  Ht: 42.3%
  Lym: 75.4%
  MCH: 19.3 pg
  MCHC: 33.3%
  MCV: 58.2 fL
  Mono: 2.8%
  Neu: 19.2%
  PT: 15.4 s
  Plat: 128.5 x10_4/uL
  RBC: 728.6 x10_4/ul
  Ret: 4.3%
  WBC: 108.5 x10_2/uL
  KIDNEY_L: 1.4 g
  KIDNEY_R: 1.4 g
  KIDNEY_TOTAL: 2.7 g
  LIVER: 14.4 g
  A/G: 1.1
  ALP: 1494.6 IU/L
  ALT: 46.4 IU/L
  AST: 71 IU/L
  BUN: 17 mg/dL
  CRE: 0.2 mg/dL
  Ca: 10.5 mg/dL
  Cl: 106.8 meq/L
  DBIL: 0 mg/dL
  GLC: 183 mg/dL
  IP: 7.5 mg/dL
  K: 4.1 meq/L
  LDH: 142.6 IU/L
  Na: 142.8 meq/L
  PL: 143.8 mg/dL
  RALB: 3.1 g/dL
  TBIL: 0.02 mg/dL
  TC: 73.6 mg/dL
  TG: 81.8 mg/dL
  TP: 5.8 g/dL
  gamma-GTP: 2.4 IU/L
[8]
  TERMINAL_BW: 373.4 g
  APTT: 25.6 s
  Bas: 0%
  Eos: 1%
  Fbg: 328 mg/dL
  Hb: 14.4 g/dL
  Ht: 43.7%
  Lym: 71.8%
  MCH: 18.6 pg
  MCHC: 33%
  MCV: 56.6 fL
  Mono: 2.2%
  Neu: 23.8%
  PT: 15.9 s
  Plat: 109.9 x10_4/uL
  RBC: 772.5 x10_4/ul
  Ret: 2.6%
  WBC: 94.3 x10_2/uL
  KIDNEY_L: 1.5 g
  KIDNEY_R: 1.5 g
  KIDNEY_TOTAL: 2.9 g
  LIVER: 16.5 g
  A/G: 1.1
  ALP: 1162 IU/L
  ALT: 47 IU/L
  AST: 69.5 IU/L
  BUN: 19.8 mg/dL
  CRE: 0.2 mg/dL
  Ca: 10.3 mg/dL
  Cl: 106.2 meq/L
  DBIL: 0 mg/dL
  GLC: 182 mg/dL
  IP: 6.6 mg/dL
  K: 4 meq/L
  LDH: 141 IU/L
  Na: 142.5 meq/L
  PL: 146.2 mg/dL
  RALB: 3.2 g/dL
  TBIL: 0.0075 mg/dL
  TC: 82.2 mg/dL
  TG: 86 mg/dL
  TP: 6.1 g/dL
  gamma-GTP: 2.2 IU/L
